Data from article PMC11555678, “Improved Broad Spectrum Antifungal Drug Synergies with Cryptomycin, a Cdc50-Inspired Antifungal Peptide” (ACS Infectious Diseases, 2024).

Key:
[1] = tested on: C. glabrata 2001; assay: microbe, parasite or virus in culture; assay type: cell-based, Candida glabrata; conditions: Table S1; unit and conditions not given (MICs elsewhere in μg/mL)
Description: (§1) All microdilution assays with fungi were carried out in accordance with CLSI protocols from M27 for yeasts and M38 for filamentous fungi, respectively, unless otherwise specified.[64],[65] Briefly, 96-well plates were charged with RPMI1640 media, with operating volume in the first column, 200 μL, and half operating volume, 100 μL, in the remaining wells. Drug stock solution in DMSO was aliquoted into the first well in each row. Half of the volume in the dosed well was serially diluted 2-fold until column 11. Column 11 was used as the negative growth control, and column 12 was used as the positive growth control. ON yeast cultures in YPD were washed twice in DD-H2O, resuspended in PBS, and adjusted to 5000 cfu/mL in RPMI. The 96-well plate was inoculated with 100 μL aliquots of cell suspension per well. Plates were incubated at 37 °C for 2 days.

[2] = tested on: C. neoformans cdc50Δ; assay: microbe, parasite or virus in culture; assay type: cell-based, Cryptococcus neoformans; conditions: Table S1; unit and conditions not given (MICs elsewhere in μg/mL)
Description: as §1

[3] = tested on: C. neoformans H99; assay: microbe, parasite or virus in culture; assay type: cell-based, Cryptococcus neoformans; conditions: Table S1; unit and conditions not given (MICs elsewhere in μg/mL)
Description: as §1

[4] = tested on: C. albicans SC5413; assay: microbe, parasite or virus in culture; assay type: cell-based, Candida albicans; conditions: Table S1; unit and conditions not given (MICs elsewhere in μg/mL)
Description: as §1

[5] = tested on: C. neoformans H99; assay type: cell-based, Cryptococcus neoformans; conditions: (FITC)KKOO in combination with AMB
Description: as §1, with “Plates were incubated at 37 °C for 2 days.” left out
To assess drug synergy, the initial media charged to the plate contained the peptide at twice the final operating concentration; the remaining processing steps were identical to the MIC experiment. Upon addition of 100 μL of inoculant, the final operating concentration was achieved. Control MIC plates were prepared alongside drug synergy plates to account for the day-to-day variability in any individual MIC. FIC index is computed using eq 1. All MIC assays and drug synergy assays were completed with two technical replicates per 96-well plate and a minimum of two biological replicates per drug combination. If a difference in MIC between the two technical replicates on the plate were observed, only the higher concentration was reported as the MIC to reduce the possibility of type 1 error (false positive) [drawing 1] 1

| Substance | MIC (SAR screen peptides) [1] | MIC (SAR screen peptides) [2] | MIC (SAR screen peptides) [3] | MIC (SAR screen peptides) [4] | FIC index [5] |
| --- | --- | --- | --- | --- | --- |
| WGGIOO{D-Asn}YA [N7n, D-Asn7 epimer of KKOO] | > 128 | 8 | 32 | > 128 |  |
| WGGIO{D-Orn}NYA [O6o, D-Orn6 epimer of KKOO] | > 128 | 4 | 16 | > 128 |  |
| WGGIKONYA [K6O, single ornithine-substituted AW9-Ma derivative] | 32 | 4 | 32 | 32 |  |
| WGGIKANYA [K6A, alanine substituted peptide] | > 128 | > 128 |  |  |  |
| W{Hyp}GIOONYA [G2HYP, hydroxyproline at position 2, C′ NH2] | 16 | 4 | 8 | 16 |  |
| Myristic acid {Dap(FITC)}WGGIOONYA [(FITC)KKOO, FITC labeled version of KKOO] |  | 128 | > 128 |  | < 0.5 |
| WGG{D-Ile}OONYA [I4i, D-Ile4 epimer of KKOO] | 64 | 4 | 16 | > 128 |  |
| WGGIAKNYA [K5A, alanine substituted peptide] | > 128 | > 128 |  |  |  |
| WGGIOONYA [KKOO-NHMe, C′ methylamide version of KKOO] | 16 | 4 | 8 | 16 |  |
| WGGIOKNYA [K5O, single ornithine-substituted AW9-Ma derivative] | > 128 | 8 | > 128 |  |  |
| {D-Trp}GGIOONYA [W1w, D-Trp1 epimer of KKOO] | 32 | 4 | 16 | > 128 |  |
| WGGIAANYA [KKAA, alanine substituted peptide] | > 128 | > 128 |  |  |  |
| WGGIOONY{D-Ala} [A9a, D-Ala9 epimer of KKOO] | > 128 | 4 | > 128 | > 128 |  |
